Where two headings read alike, the source gives them in different places.
What was measured:
HFF-1 and HPAEpiC cells = tested on: HFF-1 and HPAEpiC cells; parameters: method as in PMID 34170069, PMID 34885726; details: fibroblasts HFF-1 and HPAEpiC; ref [12],[17]; cited from earlier work
MCF-7 [1] = details: 48 h, cited from earlier work
HPAEpiC [2] = tested on: HPAEpiC; parameters: method as in Novais et al. [17]; details: 48 h, non-tumor cells; ref Novais et al. [17]; cited from earlier work
A375-C5 [3] = tested on: A375-C5; parameters: method as in Novais et al. [17]; details: 48 h; ref Novais et al. [17]; cited from earlier work
[4] = parameters: method as in PMID 34885726; details: used at 2×GI50; ref [17]; cited from earlier work
HCT116 (HCT116 p53+/+) [5] = details: 48 h, cited from earlier work
HPAEpiC [6] = test: SRB growth inhibition assay, non-tumor pulmonary alveolar epithelial cells; assay type: cell-based; details: Homo sapiens, Epithelial cell, 48 h
Description: (§1) A sulforhodamine B (SRB) assay was performed to evaluate the in vitro growth inhibitory activity of all synthesized hybrids, as well as intermediates in the human tumor cell lines of melanoma (A375-C5), breast adenocarcinoma (MCF-7), and colorectal carcinoma (HCT116), as well as on the non-tumor Human Pulmonary Alveolar Epithelial cell line (HPAEpiC). The concentration inducing 50% cell growth inhibition (GI50), was calculated. […] The overall results prompt us to further investigate the mechanism behind the cytotoxic activities of compounds 6, 7, and 13 in colorectal tumor cells. Moreover, in silico studies were performed, aiming to screen for drug-likeness.
(§2) A375-C5 (melanoma) and MCF-7 (breast adenocarcinoma) cell lines were obtained from the European Collection of Cell Culture, UK, and were grown in RPMI-1640 medium (Roswell Park Memorial Institute, Biochrom, Cambridge, UK) with 5% inactivated FBS (fetal bovine serum, Biochrom). HCT-116 (colon adenocarcinoma) cells were grown in DMEM medium (Dulbecco’s Modified Eagle’s, Biochrom) with 5% inactivated FBS. The non-tumor human pulmonary alveolar epithelial cells (HPAEpiC) were obtained from ScienCell Research Laboratories and grown in DMEM medium supplemented with 10% FBS and 1% non-essential amino acids (Sigma-Aldrich Co., Saint Louis, MO, USA). All cell lines were maintained in a humidified incubator (Hera Cell, Heraeus, Hanau, Germany) at 37 °C and with 5% CO2, and cell viability was regularly monitored using the exclusion trypan blue dye.
(§3) A total of 5.0 × 10^4 A375-C5, MCF-7, and HCT-116 cells, or 6.0 × 10^4 HPAEpiC cells were seeded in 96-well plates and incubated at 37 °C and 5% CO2 to allow for cell attachment. After 24 h, cells were treated with two-fold serial dilutions of test compounds (0–150 µM), or with DMSO as the compound solvent. In parallel, cells in a time-zero (T0) plate, without treatment, were fixed with 50% (m/v) trichloroacetic acid (TCA, Merck Millipore, Darmstadt, Germany), for 1 h at 4 °C, and then washed with distilled water and left to dry. Forty-eight hours after compound treatment, cells were fixed with 50% TCA and stained with SRB (Sigma-Aldrich Co., Ltd., Gillingham, UK) for 30 min at room temperature, followed by 5 rounds of washing with 1% (v/v) acetic acid (Merck Milli-pore, Darmstadt, Germany). SRB–protein complexes were then solubilized with […] Tris buffer (Sigma-Aldrich Co., Ltd., Gillingham, UK) for 30 min, and the absorbance was measured at 515 nm in a microplate reader (Biotek Synergy 2, BioTek Instruments, Inc., Winooski, VT, USA). A dose-response curve was obtained for each cell line, and the concentration that caused 50% cell growth inhibition (GI50) was calculated.

p53–MDM2 interaction [7] = molecular target: T1, p53–MDM2 interaction (Homo sapiens, UniProt Q00987); parameters: method as in doi:10.1016/j.arabjc.2016.04.015; details: ref [16]; cited from earlier work
T1 construct: expressed in transfected cells; host or cells: Saccharomyces cerevisiae strain CG379

A375-C5 [8] = test: Sulforhodamine B (SRB) growth inhibition assay, melanoma cells; assay type: cell-based; details: Homo sapiens, 48 h
Description: as §1, §2, §3

HCT116 p53−/− = test: SRB growth inhibition assay, p53 knocked-out colorectal cells; assay type: cell-based, human
Description: as §3

MCF-7 [9] = test: SRB growth inhibition assay, breast adenocarcinoma cells; assay type: cell-based; details: Homo sapiens, MCF7, 48 h
Description: as §1, §2, §3

p53–MDM2 interaction [10] = molecular target: T1, p53–MDM2 interaction; test: Yeast targeted screening assay of p53–MDM2 interaction; details: 10 μM, yeast cell-based assay, data not shown
Description: However, since CM-M345 (1) has been previously reported as a p53-MDM2 inhibitor by our research group, the effect of 10 μM of compounds 6, 7, and 13 on the p53–MDM2 interaction was analyzed using yeast cell-based assays.
Saccharomyces cerevisiae (strain CG379) expressing human wt p53 alone and combined with human MDM2 were obtained in previous works. For the expression of human proteins (routinely grown in minimal selective medium), cells were diluted to 0.05 OD600 in selective induction medium containing 2% (w/w) galactose, 1% (w/w) raffinose, 0.7% (w/w) yeast nitrogen base without amino acids from Difco (Quilaban, Sintra, Portugal), and all the amino acids required for yeast growth ([…]) except leucine and tryptophan. Yeast cells were incubated at 30 °C under continuous orbital shaking (200 rpm) with 10 µM compounds or 0.1% DMSO only, for approximately 42 h (time required by the control yeast, co-transformed with the empty vectors and incubated with DMSO only, to achieve 0.4 OD600). Yeast growth was analyzed by counting the number of colony-forming units (CFU) after 2 days of incubation at 30 °C on Sabouraud Dextrose Agar from Liofilchem (Frilabo, Porto, Portugal).

[11] = tested on: A375-C5, MCF-7 and HCT116 cell lines; test: SRB growth inhibition, range over the tumor cell lines of Table 1; assay type: cell-based; details: Homo sapiens; SAR discussion, values of Table 1
Description: Considering the antiproliferative effects on tumor cells of all the studied compounds (Table 1), some SAR considerations may be undertaken (Figure 2). […] Nevertheless, this effect is not observed for the flavone derivatives 15 and 16. […] Additionally, with the screening of the synthetic intermediates, some conclusions can also be inferred (Figure 2).
as §3

HCT116 (HCT116 p53+/+) [12] = test: SRB growth inhibition assay, colorectal carcinoma cells; assay type: cell-based; details: Homo sapiens, HCT-116
Description: as §1, §2, §3

HCT116 cells [13] = test: Apoptosis detection via flow cytometry (Annexin V-FITC/PI); assay type: cell-based, human; details: HCT116, 48 h, vs untreated or DMSO
Description: Double labeling with annexin V-FITC and propidium iodide dyes was used to detect cells going through apoptotic events, using a flow cytometer in order to obtain insights into the mechanism by which compounds 6, 7, and 13 generate antiproliferative activity against colorectal carcinoma cells. For that, HCT116 cells were exposed to each compound for 48 h.
To evaluate apoptotic cell death, the “Annexin V-FITC Apoptosis Detection Kit” (eBioscience, Vienna, Austria) was used according to the manufacturer’s instructions. Briefly, 1.2 × 10^5 cells/well were seeded into 6-well plates, and 24 h later, cells were treated with compounds 6, 7, and 13. After 48 h, floating and adherent cells were collected, pelleted via centrifugation (1000 rpm, 5 min), and suspended in binding buffer. Annexin V-FITC was added and incubated for 10 min, protected from light. Cells were washed and resuspended in binding buffer, and 20 μg/mL of propidium iodide (PI) was added. Fluorescence was assessed using the BD Accuri™ C6 Plus flow cytometer (BD Biosciences, Qume Drive, San Jose, CA, USA), and the data were analyzed with the BD Accuri TM C6 Plus software (version 1.0.27.1, San Jose, CA, USA). At least 20,000 events per sample were collected.

HCT116 cells [14] = test: Mitotic arrest / mitotic index by phase-contrast microscopy; assay type: cell-based, human; details: HCT116, 24 h, phase contrast microscopy
Description: Disruption of cell cycle progression is considered one of the most common cytotoxic mechanisms of anticancer drugs. Moreover, the antimitotic effect of BP-M345 (2) has been previously reported. Therefore, compounds 6, 7, and 13 were tested for their capability to induce cell cycle arrest. HCT116 cells were exposed for 24 h to the compounds and then analyzed using phase contrast microscopy for morphological changes. Untreated and dimethyl sulfoxide (DMSO; solvent)-treated cells were used as negative controls. Cell exposure to nocodazole, an antimitotic agent, was used as a positive control. […] We thus calculated the mitotic index (MI), and observed a significant increase in MI in 7-treated cells (22.76 ± 4.30%) compared to the untreated (12.68 ± 1.98%) or DMSO-treated (12.81 ± 1.45%) (Figure 4c).
A total of 1.2 × 10^5 HCT-116 cells were grown in six-well dishes and treated for 24 h with 3.26 µM of compound 7. Cells treated with 1 µM nocodazole were used as a positive control for antimitotic activity. Untreated cells and cells treated with DMSO were included to exclude the cytotoxicity of the compound solvent. Mitotic index, and the percentage of mitotic cells over the total cell population were determined via cell-rounding under phase-contrast microscopy from at least ten random microscope fields.
For phase contrast microscopy images, a Nikon TE 2000-U microscope (Nikon, Amsterdam, The Netherlands) with a 10× objective was used, coupled to a DXM1200F digital camera with Nikon ACT-1 software (Melville, NY, USA). For fluorescence images, an Axio Observer Z.1 SD microscope (Carl Zeiss, Germany) was used, coupled to an AxioCam MR3, with the Plan Apochromatic 63×/NA 1.4 objective. The images were processed using ImageJ, version 1.51.

T1 sequence (Q00987 whole entry): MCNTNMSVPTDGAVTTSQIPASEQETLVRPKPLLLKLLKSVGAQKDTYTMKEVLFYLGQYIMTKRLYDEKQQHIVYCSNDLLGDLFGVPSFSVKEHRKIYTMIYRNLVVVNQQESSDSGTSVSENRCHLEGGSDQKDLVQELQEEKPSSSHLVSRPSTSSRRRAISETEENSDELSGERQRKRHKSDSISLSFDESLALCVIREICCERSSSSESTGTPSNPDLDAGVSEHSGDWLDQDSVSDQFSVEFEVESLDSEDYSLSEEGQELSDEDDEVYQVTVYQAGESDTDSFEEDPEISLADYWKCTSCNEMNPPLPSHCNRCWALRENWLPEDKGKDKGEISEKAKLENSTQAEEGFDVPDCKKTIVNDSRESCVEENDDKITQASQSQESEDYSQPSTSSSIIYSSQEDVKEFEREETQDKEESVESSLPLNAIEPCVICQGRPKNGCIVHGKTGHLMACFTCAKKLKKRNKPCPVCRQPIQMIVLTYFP

Row | Structure (SMILES) | Cytotoxicity in non-tumor cell lines (HFF-1 and HPAEpiC cells) | GI50 (MCF-7 [1]; ref Novais et al. [17]) [nM] | GI50 (HPAEpiC [2]) [nM] | GI50 (A375-C5 [3]) [nM] | Mitotic index (MI) [4] [%] | GI50 (HCT116 (HCT116 p53+/+) [5]; ref Moreira et al. [12]) [nM] | GI50 (HPAEpiC [6]) [nM] | GI50 (MCF-7 [1]; ref Pereira et al. [16]) [nM] | Inhibition of the p53–MDM2 interaction in yeast-based assays (p53–MDM2 interaction [7]) | GI50 (A375-C5 [8]) [nM] | SI, selective index (GI50 of HCT116 p53−/−/GI50 of HCT116 p53+/+) (HCT116 p53−/−) | GI50 (HCT116 (HCT116 p53+/+) [5]; ref Pereira et al. [16]) [nM] | GI50 (MCF-7 [9]) [nM] | Effect on the p53–MDM2 interaction (reversal of the negative growth effect of MDM2 on p53) (p53–MDM2 interaction [10]) | GI50 [11] [nM] | GI50 (HCT116 (HCT116 p53+/+) [12]; SRB, 48 h, read-out: GI50 HCT116) [nM] | GI50 (HCT116 (HCT116 p53+/+) [12]; Table 2, 48 h, read-out: GI50 HCT116 p53+/+) [nM] | Apoptosis induction (Annexin V-positive cells) (HCT116 cells [13]) | GI50 (HCT116 p53−/−; Homo sapiens, HCT-116, Table 2, 48 h) [nM] | Accumulation of bright and rounded (mitotic) cells (HCT116 cells [14])
1 | COc1cc(/C=C2\COC/C(=C\c3cc(OC)c(OC)c(OC)c3)C2=O)cc(OC)c1OC [BP-M345 (2)] | low cytotoxicity | 450 ± 60 | 1070 ± 160 | 240 ± 10 | 29.8 ± 5.6 | 170 ± 10 | – | – | – | – | – | – | – | – | – | – | – | – | – | –
2 | CCCc1c(OC)ccc(C(=O)/C=C/c2cc(OC)c(OC)c(OC)c2)c1O [CM-M345 (1), reference compound] | – | – | – | – | – | – | 6100 ± 660 | 2300 ± 100 | inhibitor of the interaction | 5570 ± 60 | 1.31 | 2600 ± 200 | – | – | – | – | – | – | – | –
3 | CCCc1c(OCCNC(=O)OC(C)(C)C)ccc(C(=O)/C=C/c2cc(OC)c(OC)c(OC)c2)c1O [Compound 6, tert-butyl(E)-(2-(3-hydroxy-2-propyl-4-(3-(3,4,5-trimethoxyphenyl)acryloyl)phenoxy)ethyl)carbamate] | – | – | – | – | – | – | 9600 ± 940 | – | – | 3610 ± 1110 | 0.68 | – | 39800 ± 2110 | none of the tested compounds significantly reversed the negative inhibitory growth effect of MDM2 on p53 | 2810 to 39800 | 2810 ± 650 | 2810 ± 650 | induces apoptotic tumor cell death | 1900 ± 300 | not observed

From article PMC10303900, “Discovery of a New Chalcone-Trimethoxycinnamide Hybrid with Antimitotic Effect: Design, Synthesis, and Structure—Activity Relationship Studies” (Pharmaceuticals, 2023)
